Assays:
FLAG-ERα = molecular target: T1, FLAG-ERα (Homo sapiens, UniProt P03372); experiment: ERE-driven luciferase transactivation assay in HELN-Fα cells; type: cell-based; conditions: 16 hr stimulation, luciferase activity, 100% = 10 nM E2
T1 construct: expressed in transfected cells; pSG5-puro plasmid
T1 sequence (P03372 1-595): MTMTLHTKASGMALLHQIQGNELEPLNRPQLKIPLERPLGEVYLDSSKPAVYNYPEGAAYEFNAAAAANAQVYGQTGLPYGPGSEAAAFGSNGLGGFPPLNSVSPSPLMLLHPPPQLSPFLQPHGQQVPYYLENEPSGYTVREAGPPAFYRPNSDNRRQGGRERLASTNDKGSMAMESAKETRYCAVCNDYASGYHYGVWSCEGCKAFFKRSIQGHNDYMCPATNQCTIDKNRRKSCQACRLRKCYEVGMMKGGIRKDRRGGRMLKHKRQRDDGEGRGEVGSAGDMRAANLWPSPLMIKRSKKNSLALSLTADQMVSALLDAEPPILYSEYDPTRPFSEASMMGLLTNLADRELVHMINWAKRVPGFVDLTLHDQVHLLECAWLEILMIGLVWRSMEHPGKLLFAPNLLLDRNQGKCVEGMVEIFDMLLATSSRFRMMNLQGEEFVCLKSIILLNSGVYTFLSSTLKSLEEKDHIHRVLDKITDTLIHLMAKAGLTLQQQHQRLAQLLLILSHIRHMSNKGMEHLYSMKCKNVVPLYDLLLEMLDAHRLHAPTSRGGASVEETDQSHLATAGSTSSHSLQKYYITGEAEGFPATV
Experimental: (§1) Cells were incubated with compounds for 16 h. At the end of the incubation, effector containing medium was removed and replaced by 0.3 mM luciferin containing 6% DCC-FCS. At this concentration, luciferin diffuses into the cell and produces a stable luminescent signal. The 96-well plate was then introduced in a microplate luminometer (Microbeta, Wallac) and intact living cell luminescence measured for 2 s. EC50 values were evaluated using Graph-Pad Prism Statistics software (version 4.0; Graph-Pad Software Inc., San Diego, CA, USA).

FLAG-ERβ = molecular target: T2, FLAG-ERβ (Homo sapiens, UniProt Q92731); experiment: ERE-driven luciferase transactivation assay in HELN-Fβ cells; type: cell-based; conditions: HELN-Fβ versus HELN-Fα cells, 16 hr
T2 construct: FLAG-ERβ (full length version of 530 amino acids); expressed in transfected cells; pSG5-puro plasmid
T2 sequence (Q92731 whole entry): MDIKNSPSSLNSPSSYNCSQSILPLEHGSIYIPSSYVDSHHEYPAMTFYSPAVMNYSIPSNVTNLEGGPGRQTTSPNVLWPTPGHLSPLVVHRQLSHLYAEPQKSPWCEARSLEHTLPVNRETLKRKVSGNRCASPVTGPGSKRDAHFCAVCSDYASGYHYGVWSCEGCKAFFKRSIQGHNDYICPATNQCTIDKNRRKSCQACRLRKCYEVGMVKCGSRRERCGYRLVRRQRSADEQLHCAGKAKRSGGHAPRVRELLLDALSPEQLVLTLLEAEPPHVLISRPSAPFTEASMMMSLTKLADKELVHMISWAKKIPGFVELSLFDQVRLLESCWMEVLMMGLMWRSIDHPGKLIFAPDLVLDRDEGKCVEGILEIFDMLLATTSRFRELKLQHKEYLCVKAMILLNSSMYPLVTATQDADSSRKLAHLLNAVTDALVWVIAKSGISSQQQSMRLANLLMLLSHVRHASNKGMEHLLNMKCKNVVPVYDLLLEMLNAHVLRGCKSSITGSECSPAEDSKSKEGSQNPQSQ
Experimental: as §1

ERα = system: ERα; design: method as in PMID 11708925, PMID 11150164; conditions: ERα selective agonist; RBA = 100 for estradiol; cited from earlier work

CCCc1c(-c2ccc(O)cc2)nn(-c2ccc(O)cc2)c1-c1ccc(O)cc1 [PPT, Propylpyrazoletriol]
EC50 (FLAG-ERα): 0.15 nM
activation of ERβ (in words) (FLAG-ERβ): activated only ERα
relative binding activity (RBA) (ERα): 49

— paper PMC2749030, “New stably transfected bioluminescent cells expressing FLAG epitope-tagged estrogen receptors to study their chromatin recruitment” (BMC Biotechnology, 2009)
